Results taken from patent publication US12036237B2, “Bromide source for use in treating autism spectral disorder” (INSERM (INSTITUT NATIONAL DE LA SANTE ET DE LA RECHERCHE …, priority 2016, dated 2024).
“Also recorded” adds a separate entry of the source.

Key:
[1] = system: Oprm1−/− mice; test: Y-maze exploration; details: bumetanide 0.5 mg/kg i.p. daily; for rate of same arm returns (cognitive stereotypies): Oprm1−/− mice
[2] = system: Oprm1−/− mice; test: Motor stereotypies scoring; details: bumetanide 0.5 mg/kg i.p. daily
[3] = system: Oprm1−/− mice; test: Three-chamber social novelty preference test; details: bumetanide 0.5 mg/kg i.p. daily vs saline
[4] = system: Oprm1−/− mice; test: Direct social interaction test; details: Oprm1−/− mice, bumetanide 0.5 mg/kg i.p. daily vs saline
[5] = literature statement (Romermann et al, 2017); cited from earlier work
[6] = system: Oprm1−/− mice; test: Marble burying test; details: bumetanide 0.5 mg/kg i.p. daily
[7] = system: Oprm1−/− mice; test: Novelty-suppressed feeding test

Compound: CCCCNc1cc(C(=O)O)cc(S(N)(=O)=O)c1Oc1ccccc1 [bumetanide, Bumetanide]
- rate of same arm returns (cognitive stereotypies) [1]: reduced
- rate of same arm returns (cognitive stereotypies) ([1]; listed as Bumetanide): reduced cognitive stereotypies; also recorded: similarly reduced
- rates of spontaneous alternation and alternate arm returns ([1]; all animals): did not modify
- circling episodes ([2]; Oprm1−/− mice): efficiently suppressed
- stereotypic behaviour / motor stereotypies (overall) ([2]; Oprm1−/− mice): efficiently relieved stereotypic behaviour
- stereotypic shakes ([2]; Oprm1−/− mice): efficiently suppressed
- stereotypic behaviour / motor stereotypies (overall) ([2]; Oprm1−/− mice, listed as Bumetanide): suppressed motor stereotypies
- duration of burying episodes ([2]; all mice): no significant effect
- number of and time spent in burying episodes ([2]; all mice): increased
- number of rearing and grooming episodes ([2]; mutant or wild-type): did not change
- difference (mouse over toy) in number of nose contacts [3]: restored the difference; also recorded: increased
- difference (preference for the mouse over the toy) in time spent in compartments [3]: restored the difference; also recorded: successfully restored
- duration of close contacts with the living mouse [3]: unable to reverse the deficit; also recorded: failed to restore
- time spent in close contacts with the living mouse [3]: unable to reverse the deficit; also recorded: absence of effect
- number of and time spent in grooming episodes [4]: only effective in reducing the number of grooming episodes
- number of grooming episodes following a social contact [4]: only effective in reducing the number of grooming episodes
- number of nose contacts [4]: no significant effect
- number of, time spent in and duration of paw contacts [4]: no significant effect
- social interaction (overall) [4]: only partially restored social interaction
- time spent in and duration of nose contacts [4]: increased, but failed to completely rescue
- time spent in social contact [4]: increased, but failed to completely rescue
- number of and time spent in grooming episodes ([4]; listed as Bumetanide): normalized
- number of grooming episodes following a social contact ([4]; listed as Bumetanide): normalized
- ability to cross the blood brain barrier [5]: inability; also recorded: low ability to cross the blood brain barrier
- number of marbles buried [6]: did not significantly modify
- food intake back in the home cage ([7]; Oprm1 line, bumetanide 0.5 mg/kg i.p. daily): did not modify significantly
- feeding latency ([7]; Oprm1−/− mice, bumetanide 0.5 mg/kg i.p. daily): did not modify significantly
- behavioural signs of anxiety (overall) ([7]; Oprm1−/− mice, marble burying and novelty-suppressed feeding, bumetanide 0.5 mg/kg): did not show effects
